Data as given in ChEMBL document CHEMBL5584314, “Identification of an m6A Natural Inhibitor, Lobeline, That Reverses Lenvatinib Resistance in Hepatocellular Tumors” (J Nat Prod, 2024).
Calls of active or inactive are those of the source. The calls are words filed in the database; no cut-off is given here.

How the values were obtained:
Type in all cases: cell-based
[1] = biological target: N6-adenosine-methyltransferase catalytic subunit (Homo sapiens) (UniProt Q86U44); assay: Inhibition of METTL3 in human Lenvatinib-resistant Huh7/Len cells assessed as effect on EZH2 mRNA expression level at 2 uM incubated for 72 hrs by RT-PCR analysis
Sequence of N6-adenosine-methyltransferase catalytic subunit (Homo sapiens) (Q86U44 whole entry): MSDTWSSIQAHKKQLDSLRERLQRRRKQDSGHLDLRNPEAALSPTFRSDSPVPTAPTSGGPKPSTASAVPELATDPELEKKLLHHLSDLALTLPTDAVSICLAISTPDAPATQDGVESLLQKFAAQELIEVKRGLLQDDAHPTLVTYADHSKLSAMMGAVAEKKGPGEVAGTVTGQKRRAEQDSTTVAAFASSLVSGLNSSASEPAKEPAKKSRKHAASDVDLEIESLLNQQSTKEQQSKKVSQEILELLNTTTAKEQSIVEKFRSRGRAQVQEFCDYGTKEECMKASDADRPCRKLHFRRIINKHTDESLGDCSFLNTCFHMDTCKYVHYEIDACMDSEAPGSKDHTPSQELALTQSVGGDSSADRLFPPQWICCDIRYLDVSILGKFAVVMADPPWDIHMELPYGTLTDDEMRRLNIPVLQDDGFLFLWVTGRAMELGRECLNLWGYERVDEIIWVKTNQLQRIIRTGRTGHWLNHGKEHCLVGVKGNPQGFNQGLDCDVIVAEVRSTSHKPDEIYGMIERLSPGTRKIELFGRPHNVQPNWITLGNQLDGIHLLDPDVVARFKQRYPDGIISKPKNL

[2] = biological target: N6-adenosine-methyltransferase catalytic subunit (Homo sapiens) (UniProt Q86U44); assay: Inhibition of METTL3 in human Lenvatinib-resistant Huh7/Len cells assessed as effect on GATA3 mRNA expression level at 2 uM incubated for 72 hrs by RT-PCR analysis
[3] = biological target: N6-adenosine-methyltransferase catalytic subunit (Homo sapiens) (UniProt Q86U44); assay: Inhibition of METTL3 in human Lenvatinib-resistant Huh7/Len cells assessed as effect on HNF4A mRNA expression level at 2 uM incubated for 72 hrs by RT-PCR analysis
[4] = biological target: N6-adenosine-methyltransferase catalytic subunit (Homo sapiens) (UniProt Q86U44); assay: Inhibition of METTL3 in human Lenvatinib-resistant Huh7/Len cells assessed as effect on IFIT2 mRNA expression level at 2 uM incubated for 72 hrs by RT-PCR analysis
[5] = biological target: N6-adenosine-methyltransferase catalytic subunit (Homo sapiens) (UniProt Q86U44); assay: Inhibition of METTL3 in human Lenvatinib-resistant Huh7/Len cells assessed as effect on SLC7A11 mRNA expression level at 2 uM incubated for 72 hrs by RT-PCR analysis
[6] = biological target: N6-adenosine-methyltransferase catalytic subunit (Homo sapiens) (UniProt Q86U44); assay: Inhibition of METTL3 in human Lenvatinib-resistant Huh7/Len cells assessed as effect on MYC mRNA expression level at 2 uM incubated for 72 hrs by RT-PCR analysis
[7] = biological target: N6-adenosine-methyltransferase catalytic subunit (Homo sapiens) (UniProt Q86U44); assay: Inhibition of METTL3 in human Lenvatinib-resistant Huh7/Len cells assessed as effect on CRB3 mRNA expression level at 2 uM incubated for 72 hrs by RT-PCR analysis
[8] = biological target: N6-adenosine-methyltransferase catalytic subunit (Homo sapiens) (UniProt Q86U44); assay: Inhibition of METTL3 in human Lenvatinib-resistant Huh7/Len cells assessed as effect on DEK mRNA expression level at 2 uM incubated for 72 hrs by RT-PCR analysis
[9] = biological target: N6-adenosine-methyltransferase catalytic subunit (Homo sapiens) (UniProt Q86U44); assay: Inhibition of METTL3 in human Lenvatinib-resistant Huh7/Len cells assessed as effect on TIBIM6 mRNA expression level at 2 uM incubated for 72 hrs by RT-PCR analysis
[10] = biological target: N6-adenosine-methyltransferase catalytic subunit (Homo sapiens) (UniProt Q86U44); assay: Inhibition of METTL3 in human Lenvatinib-resistant Huh7/Len cells assessed as effect on NPCL1 mRNA expression level at 2 uM incubated for 72 hrs by RT-PCR analysis
[11] = biological target: N6-adenosine-methyltransferase catalytic subunit (Homo sapiens) (UniProt Q86U44); assay: Inhibition of METTL3 in human Huh-7 cells assessed as down regulation of m6A RNA level at 2 uM incubated for 72 hrs by colorimetric analysis
[12] = biological target: N6-adenosine-methyltransferase catalytic subunit (Homo sapiens) (UniProt Q86U44); assay: Inhibition of METTL3 in human Lenvatinib-resistant Huh7/Len cells assessed as effect on MMP13 mRNA expression level at 2 uM incubated for 72 hrs by RT-PCR analysis
[13] = biological target: N6-adenosine-methyltransferase catalytic subunit (Homo sapiens) (UniProt Q86U44); assay: Inhibition of METTL3 in human Lenvatinib-resistant Huh7/Len cells assessed as effect on FGFR3 mRNA expression level at 2 uM incubated for 72 hrs by RT-PCR analysis
[14] = biological target: N6-adenosine-methyltransferase catalytic subunit (Homo sapiens) (UniProt Q86U44); assay: Inhibition of METTL3 in human Lenvatinib-resistant Huh7/Len cells assessed as effect on ADAMTS9 mRNA expression level at 2 uM incubated for 72 hrs by RT-PCR analysis
[15] = biological target: N6-adenosine-methyltransferase catalytic subunit (Homo sapiens) (UniProt Q86U44); assay: Inhibition of METTL3 in human Lenvatinib-resistant Huh7/Len cells assessed as effect on TET1 mRNA expression level at 2 uM incubated for 72 hrs by RT-PCR analysis
[16] = biological target: N6-adenosine-methyltransferase catalytic subunit (Homo sapiens) (UniProt Q86U44); assay: Inhibition of METTL3 in human Lenvatinib-resistant Huh7/Len cells assessed as effect on MMP3 mRNA expression level at 2 uM incubated for 72 hrs by RT-PCR analysis
[17] = biological target: N6-adenosine-methyltransferase catalytic subunit (Homo sapiens) (UniProt Q86U44); assay: Inhibition of METTL3 in human Lenvatinib-resistant Huh7/Len cells assessed as effect on IFFO1 mRNA expression level at 2 uM incubated for 72 hrs by RT-PCR analysis
[18] = biological target: N6-adenosine-methyltransferase catalytic subunit (Homo sapiens) (UniProt Q86U44); assay: Inhibition of METTL3 in human Lenvatinib-resistant Huh7/Len cells assessed as effect on CTSL mRNA expression level at 2 uM incubated for 72 hrs by RT-PCR analysis
[19] = biological target: N6-adenosine-methyltransferase catalytic subunit (Homo sapiens) (UniProt Q86U44); assay: Inhibition of METTL3 in human Lenvatinib-resistant Huh7/Len cells assessed as effect on UCK2 mRNA expression level at 2 uM incubated for 72 hrs by RT-PCR analysis
[20] = biological target: N6-adenosine-methyltransferase catalytic subunit (Homo sapiens) (UniProt Q86U44); assay: Inhibition of METTL3 in human Lenvatinib-resistant Huh7/Len cells assessed as effect on LATS1 mRNA expression level at 2 uM incubated for 72 hrs by RT-PCR analysis
[21] = biological target: N6-adenosine-methyltransferase catalytic subunit (Homo sapiens) (UniProt Q86U44); assay: Inhibition of METTL3 in human Lenvatinib-resistant Huh7/Len cells assessed as effect on AKT1 mRNA expression level at 2 uM incubated for 72 hrs by RT-PCR analysis

- inhibition [1]: Active
- inhibition [2]: Active
- inhibition [3]: Active
- inhibition [4]: Active
- inhibition [5]: Active
- inhibition [6]: Active
- inhibition [7]: Active
- inhibition [8]: Active
- inhibition [9]: Active
- inhibition [10]: Active
- inhibition [11]: 18%
- inhibition [12]: Active
- inhibition [13]: Active
- inhibition [14]: Active
- inhibition [15]: Active
- inhibition [16]: Active
- inhibition [17]: Active
- inhibition [18]: Active
- inhibition [19]: Active
- inhibition [20]: Active
- inhibition [21]: Active
SMILES: O=C(NCc1cn2cc(CNCC3CCCCC3)ccc2n1)c1cc(=O)n2ccccc2n1
